Experimental data reported in the supplement of paper PMC10883282.

Legend:
Assay in all cases: relative viability vs DMSO control (72 h) (fraction); higher = more viable cells
HS729 = system: HS729
How it was run: (§1)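 Relative viability is percent growth read by ATPLite and averaged over up to triplicate wells. Sarcoma cells were seeded in 384-well plates to reach 80–90% confluence and given 2.5 µl of serially diluted compound after 24 h, from source plates of 10 mM to 0.0002 mM. Incubation lasted 72 h at 37 °C, 5% CO2, with 0.1% DMSO vehicle and a 5 µM positive control, and the data were rescaled so 1 equals full and 0 equals none.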

MES-SA = system: MES-SA
How it was run: as §1

RD = system: RD
How it was run: as §1

SK-LMS-1 = system: SK-LMS-1
How it was run: as §1

VA-ES-BJ = system: VA-ES-BJ
How it was run: as §1

CS(=O)(=O)CCNCc1ccc(-c2ccc3ncnc(Nc4ccc(OCc5cccc(F)c5)c(Cl)c4)c3c2)o1 [Lapatinib]
relative viability
Conditions	HS729	MES-SA	RD	SK-LMS-1	VA-ES-BJ
0.00017 µM	0.93	0.933	1.09	1.1	1.019
0.00051 µM	0.935	0.918	1.1	1.09	1.01
0.00152 µM	0.873	0.904	1.09	1.08	1.02
0.00457 µM	0.878	0.912	1.11	1.13	1.03
0.01372 µM	0.939	0.923	1.08	1.17	1.01
0.04115 µM	0.921	0.931	1.12	1.15	0.992
0.1235 µM	0.93	0.945	1.09	1.07	0.993
0.3704 µM	0.887	0.9335	1.1	1.1	0.979
1.111 µM	0.879	0.915	1.1	1.11	0.985
3.333 µM	0.794	0.683	0.98	0.824	0.927
10 µM	0.134	0.0484	0.0224	0.361	0.451

COc1cc(N2CCC(N3CCN(C)CC3)CC2)ccc1Nc1ncc(Cl)c(Nc2ccccc2P(C)(C)=O)n1 [Brigatinib]
relative viability
Conditions	HS729	MES-SA	RD	SK-LMS-1	VA-ES-BJ
0.00017 µM	0.91	0.864	1.06	1.04	0.946
0.00051 µM	0.925	0.843	1.06	1	0.945
0.00152 µM	0.933	0.866	1.07	1.02	0.943
0.00457 µM	0.909	0.893	1.05	0.986	0.941
0.01372 µM	0.858	0.859	1.05	0.998	0.983
0.04115 µM	0.771	0.894	0.978	1.02	0.91
0.1235 µM	0.685	0.956	0.769	1.02	0.865
0.3704 µM	0.595	1.01	0.459	0.924	0.662
1.111 µM	0.417	0.948	0.342	0.757	0.272
3.333 µM	0.199	0.385	0.168	0.556	0.144
10 µM	0.0341	0.135	0.0473	0.331	0.125

Cc1cc2c(F)c(Oc3ncnn4cc(OC[C@@H](C)OC(=O)[C@H](C)N)c(C)c34)ccc2[nH]1 [Brivanib_alaninate]
relative viability
Conditions	HS729	MES-SA	RD	SK-LMS-1	VA-ES-BJ
0.00017 µM	0.943	0.919	1.07	0.967	1.02
0.00051 µM	0.893	0.939	1.07	0.995	1.02
0.00152 µM	0.914	0.939	1.1	0.978	1.03
0.00457 µM	0.878	0.929	1.09	1.01	1.03
0.01372 µM	0.9	0.927	1.1	1.01	1.04
0.04115 µM	0.897	0.911	1.08	0.987	0.984
0.1235 µM	0.877	0.92	1.09	0.989	1.02
0.3704 µM	0.898	0.942	1.1	0.998	1.04
1.111 µM	0.923	0.956	1.12	1	1.07
3.333 µM	0.891	0.829	1.04	0.606	1.03
10 µM	0.782	0.5146	0.874	0.512	0.983

C=CC(=O)N1CCC(CNc2ncnc(N)c2-c2ccc(Oc3ccccc3)cc2)CC1 [Evobrutinib]
relative viability
Conditions	HS729	MES-SA	RD	SK-LMS-1	VA-ES-BJ
0.00017 µM	1.08	1	1.06	1.08	1.1
0.00051 µM	1.09	0.9618	1.09	1.1	1.08
0.00152 µM	1.04	0.963	1.09	1.08	1.07
0.00457 µM	1.07	0.9579	1.08	1.08	1.08
0.01372 µM	1.03	0.964	1.11	1.04	1.09
0.04115 µM	0.991	0.956	1.11	1.11	1.043
0.1235 µM	1.01	0.968	1.12	1.11	1.06
0.3704 µM	1.01	0.933	1.09	1.05	1.06
1.111 µM	0.978	0.928	1.08	1.08	1.06
3.333 µM	0.938	0.892	1.07	0.997	1.1
10 µM	0.862	0.792	1.11	0.981	1.1

Cc1[nH]c(/C=C2\C(=O)Nc3ccccc32)c(C)c1CCC(=O)O [Orantinib]
relative viability
Conditions	HS729	MES-SA	RD	SK-LMS-1	VA-ES-BJ
0.00017 µM	1.07	1	1.05	1.06	1.11
0.00051 µM	1.09	0.989	1.08	1.072	1.1
0.00152 µM	1.08	0.975	1.1	1.06	1.116
0.00457 µM	1.06	0.968	1.12	1.04	1.096
0.01372 µM	1.04	0.951	1.11	1.05	1.06
0.04115 µM	1.04	0.948	1.09	1.07	1.053
0.1235 µM	0.997	0.948	1.12	1.04	1.1
0.3704 µM	0.966	0.953	1.11	1.032	1.07
1.111 µM	0.923	0.941	1.11	0.994	1.028
3.333 µM	0.923	0.941	1.07	0.971	1.05
10 µM	0.889	0.93	1.06	0.8874	0.998

Cc1c2oc3c(C)ccc(C(=O)N[C@@H]4C(=O)N[C@H](C(C)C)C(=O)N5CCC[C@H]5C(=O)N(C)CC(=O)N(C)[C@@H](C(C)C)C(=O)O[C@@H]4C)c3nc-2c(C(=O)N[C@@H]2C(=O)N[C@H](C(C)C)C(=O)N3CCC[C@H]3C(=O)N(C)CC(=O)N(C)[C@@H](C(C)C)C(=O)O[C@@H]2C)c(N)c1=O [Dactinomycin]
relative viability
Conditions	HS729	MES-SA	RD	SK-LMS-1	VA-ES-BJ
0.00017 µM	0.912	0.9129	1.09	1	1.01
0.00051 µM	0.937	0.835	1.12	1.02	0.994
0.00152 µM	0.884	0.354	1.071	0.994	0.94
0.00457 µM	0.8961	0.321	0.811	0.86	0.733
0.01372 µM	0.711	0.265	0.64	0.664	0.457
0.04115 µM	0.128	0.0423	0.21	0.364	0.303
0.1235 µM	0.166	0.0397	0.0929	0.292	0.151
0.3704 µM	0.119	0.0566	0.108	0.27	0.158
1.111 µM	0.108	0.0464	0.0875	0.287	0.148
3.333 µM	0.113	0.0357	0.0715	0.288	0.15
10 µM	0.132	0.0424	0.0653	0.3	0.146

CN(C)C/C=C/C(=O)Nc1cc2c(Nc3ccc(F)c(Cl)c3)ncnc2cc1O[C@H]1CCOC1 [Afatinib]
relative viability
Conditions	HS729	MES-SA	RD	SK-LMS-1	VA-ES-BJ
0.00017 µM	1.07	0.967	1.08	1.1	1.09
0.00051 µM	0.975	0.955	1.13	1.1	1.1
0.00152 µM	0.989	0.948	1.15	1.11	1.06
0.00457 µM	0.953	0.947	1.11	1.08	1.03
0.01372 µM	0.958	0.934	1.11	1.13	0.983
0.04115 µM	0.968	0.887	1.07	1.04	0.974
0.1235 µM	0.937	0.885	1.09	1.01	0.968
0.3704 µM	0.802	0.725	1.03	0.879	0.911
1.111 µM	0.667	0.452	0.569	0.724	0.573
3.333 µM	0.529	0.283	0.0531	0.462	0.351
10 µM	0.007367	0.24	0.022	0.135	0.207

CCN1CCN(c2ccc(Nc3cc(N(C)C(=O)Nc4c(Cl)c(OC)cc(OC)c4Cl)ncn3)cc2)CC1 [Infigratinib]
relative viability
Conditions	HS729	MES-SA	RD	SK-LMS-1	VA-ES-BJ
85 pM	1.01	0.933	1.07	1.12	1.03
0.000254 µM	0.934	0.94	1.06	1.11	1.048
0.00076 µM	0.942	0.927	1.11	1.08	1.03
0.00229 µM	0.913	0.928	1.13	1.13	1.04
0.00686 µM	0.866	0.929	1.14	1.1	1.04
0.02058 µM	0.788	0.869	1.12	1.06	0.977
0.0617 µM	0.69	0.846	1.12	1.08	1.01
0.1852 µM	0.635	0.733	1.14	1.11	0.982
0.5556 µM	0.604	0.696	1.12	1.08	0.949
1.6667 µM	0.526	0.556	1.13	1.04	0.8949
5 µM	0.525	0.412	1.11	0.952	0.871

CCS(=O)(=O)N1CC(CC#N)(n2cc(-c3ncnc4[nH]ccc34)cn2)C1 [Baricitinib]
relative viability
Conditions	HS729	MES-SA	RD	SK-LMS-1	VA-ES-BJ
0.00017 µM	0.937	0.928	1.02	1.06	1.02
0.00051 µM	0.97	0.936	1.02	1.07	1.01
0.00152 µM	0.999	0.945	1.03	1.07	1.02
0.00457 µM	0.996	0.942	1.03	1.03	1.03
0.01372 µM	1	0.95	1.027	1.02	1.05
0.04115 µM	0.959	0.929	0.991	1.07	1.03
0.1235 µM	0.94	0.935	0.999	1.06	1.03
0.3704 µM	0.9518	0.929	1.03	1.04	1.03
1.111 µM	0.926	0.893	1.051	1.06	1.04
3.333 µM	0.9194	0.83	1.12	1.01	1.06
10 µM	0.87	0.753	1.03	0.878	0.996
